Measurements as given in patent US7265131B2, “Isoquinolinone derivatives and their use as therapeutic agents” (Exelixis, Inc., priority 2002, dated 2007).

Target: T1, LXR β (Homo sapiens, UniProt P55055)
T1 construct: comprising full-length LXR α (pCMX-hLXR α), LXR β (pCMX-hLXR β), or RXR α (pCMX-RXR); expressed in transfected cells; host or cells: CV-1 African Green Monkey kidney cells, transient transfection
T1 sequence (P55055 1-460): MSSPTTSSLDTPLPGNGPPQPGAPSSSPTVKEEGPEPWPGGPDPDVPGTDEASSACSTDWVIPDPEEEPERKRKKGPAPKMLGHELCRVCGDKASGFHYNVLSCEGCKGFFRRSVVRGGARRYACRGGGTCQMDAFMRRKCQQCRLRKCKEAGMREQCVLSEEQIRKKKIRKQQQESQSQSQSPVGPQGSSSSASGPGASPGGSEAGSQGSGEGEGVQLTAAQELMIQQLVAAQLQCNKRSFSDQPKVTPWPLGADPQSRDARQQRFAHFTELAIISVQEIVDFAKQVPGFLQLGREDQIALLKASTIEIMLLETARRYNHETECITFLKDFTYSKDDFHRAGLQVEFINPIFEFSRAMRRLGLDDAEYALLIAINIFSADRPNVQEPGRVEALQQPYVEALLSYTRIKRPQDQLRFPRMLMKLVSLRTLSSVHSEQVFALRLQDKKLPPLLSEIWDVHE
T1 sequence (P19793 1-462 partner): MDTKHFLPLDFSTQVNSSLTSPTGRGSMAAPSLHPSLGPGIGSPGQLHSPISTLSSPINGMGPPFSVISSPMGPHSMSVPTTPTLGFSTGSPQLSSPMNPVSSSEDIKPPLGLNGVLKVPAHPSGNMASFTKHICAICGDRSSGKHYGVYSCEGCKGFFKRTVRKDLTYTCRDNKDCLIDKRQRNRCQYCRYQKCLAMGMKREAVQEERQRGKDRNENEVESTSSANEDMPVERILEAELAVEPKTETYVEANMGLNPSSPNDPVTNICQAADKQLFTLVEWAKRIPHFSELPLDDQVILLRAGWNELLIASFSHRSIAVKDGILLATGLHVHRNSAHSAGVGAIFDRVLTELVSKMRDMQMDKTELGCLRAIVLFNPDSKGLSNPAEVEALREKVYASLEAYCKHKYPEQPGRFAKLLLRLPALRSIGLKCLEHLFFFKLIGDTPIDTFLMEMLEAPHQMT
Assay: LXR/LXRE co-transfection assay (luciferase reporter, CV-1 cells)
Format: cell-based
Settings: for Emax: CV-1, average percent efficacy, relative to control N-(3-((4-fluorophenyl)-(naphthalene-2-sulfonyl)amino)propyl)-2,2-dimethylpropionamide, read-out: % Eff(b); for EC50: average EC50 for agonism, cotransfection assay, CV-1 cells
Source text: To measure the ability of compounds to activate or inhibit the transcriptional activity of LXR in a cell based assay, the co-transfection assay was used. It has been shown that LXR functions as a heterodimer with RXR. For the co-transfection assay, expression plasmids for LXR and RXR are introduced via transient transfection into mammalian cells along with a luciferase reporter plasmid that contains one copy of a DNA sequence that is bound by LXR-RXR heterodimers (LXRE; Willy, P. et al. 1995). Treatment of transfected cells with an LXR agonist increases the transcriptional activity of LXR, which is measured by an increase in luciferase activity.
1. CV-1 African Green Monkey Kidney Cells
2. Co-transfection expression plasmids, comprising full-length LXR α (pCMX-hLXR α), LXR β (pCMX-hLXR β), or RXR α (pCMX-RXR), reporter plasmid (LXREx1-Tk-Luciferase), and control (pCMX-Galactosidase expression vector) (Willey et al. Genes & Development 9 1033-1045 (1995)).
CV-1 cells were prepared 24 hours prior to the experiment by plating them into T-175 flasks or 500 cm^2 dishes in order to achieve 70-80% confluency on the day of the transfection. The number of cells to be transfected was determined by the number of plates to be screened. Each 384 well plate requires 1.92×10^6 cells or 5000 cells per well. DNA Transfection Reagent was prepared by mixing the required plasmid DNAs with a cationic lipid transfection reagent FuGENE6 (Roche) by following the instructions provided with the reagents. Optimal DNA amounts were determined empirically per cell line and size of vessel to be transfected. 10-12 mL of media was added to the DNA Transfection Reagent and this mixture was added to the cells after aspirating media from the T175 cm^2 flask. Cells were then incubated at least 5 hours at 37° C. to prepare screening cells.
Luciferase assay reagent was prepared by combining before use (per 10 mL):
Assay plates were prepared by dispensing 5 μL of compound per well of a 384 well plate to achieve final compound concentration of 10 μM and no more than 1% DMSO. Media was removed from the screening cells, the cells trypsinized, harvested cells by centrifugation, counted, and plated at a density of approximately 5000 cells per well in the 384 well assay plate prepared above in a volume of about 45 μL. Assay plates containing both compounds and screening cells (50 μL in total volume) were incubated for 20 hours at 37° C.
After incubation with compounds, media was removed from the cells and lysis buffer (30 μuL/well) added. After 30 minutes at ambient temperature, luciferase assay buffer (30 μL/well) was added and the assay plates read on a luminometer (PE Biosystems Northstar reader with on-board injectors, or equivalent). Plates were read immediately after addition of luciferase assay buffer.
The LXR/LXRE co-transfection assay can be used to establish the EC50/IC50 values for potency and percent activity or inhibition for efficacy. Efficacy defines the activity of a compound relative to a high control ((N-(3-((4-fluorophenyl)-(naphthalene-2-sulfonyl)amino)propyl)-2,2-dimethylpropionamide)) or a low control (DMSO/vehicle). The dose response curves are generated from an 8 point curve with concentrations differing by ½ LOG units. Each point represents the average of 4 wells of data from a 384 well plate.
The data from this assay is fitted to the following equation, from the EC50 value may be solved: Y=Bottom+(Top-Bottom)/(1+10^((logEC50-X*HillSlope))
The EC50/IC50 is therefore defined as the concentration at which an agonist or antagonist elicits a response that is half way between the Top (maximum) and Bottom (baseline) values. The EC50/IC50 values represented are the averages of at least 3 independent experiments. […]

Cc1ccc(Cn2c(C#CC(C)(C)O)cc3ccccc3c2=O)c(C)c1 [2-(2,4-dimethylbenzyl)-3-(3-hydroxy-3-methylbut-1-ynyl)-2H-isoquinolin-1-one]
Emax: 40 to 90%
EC50: > 500 nM

Cc1ccc(Cn2c(-c3ccc(Oc4ccccc4)cc3)cc3ccccc3c2=O)c(C)c1 [2-(2,4-dimethylbenzyl)-3-(4-phenoxyphenyl)-2H-isoquinolin-1-one]
Emax: > 90%
EC50: 10 to 150 nM

Cc1cccc(-c2cc3ccccc3c(=O)n2Cc2ccc(C)cc2C)c1 [2-(2,4-dimethylbenzyl)-3-m-tolyl-2H-isoquinolin-1-one]
Emax: 40 to 90%
EC50: > 500 nM

Cc1ccc(Cn2c(-c3ccsc3)cc3ccccc3c2=O)c(C)c1 [2-(2,4-dimethylbenzyl)-3-thiophen-3-yl-2H-isoquinolin-1-one]
Emax: 40 to 90%
EC50: > 500 nM

Cc1cccc(-c2cc3ccccc3c(=O)n2Cc2ccccc2)c1 [2-benzyl-3-m-tolyl-2H-isoquinolin-1-one]
Emax: 40 to 90%
EC50: > 500 nM

O=c1c2c(Cl)cccc2cc(-c2cc(-c3cc(C(F)(F)F)cc(C(F)(F)F)c3)co2)n1Cc1ccc(F)cc1F [3-[4-(3,5-bis-trifluoromethylphenyl)furan-2-yl]-8-chloro-2-(2,4-difluorobenzyl)-2H-isoquinolin-1-one]
Emax: > 90%
EC50: 10 to 150 nM

Nc1ccc(-c2coc(-c3cc4cccc(Cl)c4c(=O)n3Cc3ccc(F)cc3F)c2)cc1C(F)(F)F [3-[4-(4-amino-3-trifluoromethylphenyl)furan-2-yl]-8-chloro-2-(2,4-difluorobenzyl)-2H-isoquinolin-1-one]
Emax: > 90%
EC50: 10 to 150 nM

O=c1c2c(Cl)cccc2cc(-c2ccc(Oc3ccccc3)cc2)n1Cc1ccc(F)cc1F [8-chloro-2-(2,4-difluorobenzyl)-3-(4-phenoxyphenyl)-2H-isoquinolin-1-one]
Emax: > 90%
EC50: 10 to 150 nM

O=c1c2c(Cl)cccc2cc(-c2ccc(Oc3cnccn3)cc2)n1Cc1ccc(F)cc1F [8-chloro-2-(2,4-difluorobenzyl)-3-[4-(pyrazin-2-yloxy)phenyl]-2H-isoquinolin-1-one]
Emax: > 90%
EC50: 10 to 150 nM

CS(=O)(=O)c1ccc(-c2ccc(-c3cc4cccc(Cl)c4c(=O)n3Cc3ccc(F)cc3F)s2)cc1 [8-chloro-2-(2,4-difluorobenzyl)-3-[5-(4-methanesulfonylphenyl)thiophen-2-yl]-2H-isoquinolin-1-one]
Emax: > 90%
EC50: < 10 nM

O=c1c2c(Cl)cccc2cc(-c2ccc(Oc3ccccc3)cc2)n1CC1CCCCC1 [8-chloro-2-cyclohexylmethyl-3-(4-phenoxyphenyl)-2H-isoquinolin-1-one]
Emax: > 90%
EC50: 150 to 500 nM

O=c1c2c(Cl)cccc2cc(-c2ccc(Oc3ccccc3)cc2)n1Cc1cccs1 [8-chloro-3-(4-phenoxyphenyl)-2-thiophen-2-ylmethyl-2H-isoquinolin-1-one]
Emax: > 90%
EC50: 150 to 500 nM

CCOc1ccc(-c2csc(-c3cc4cccc(Cl)c4c(=O)n3Cc3ccc(F)cc3F)c2)cc1Cl [8-chloro-3-[4-(3-chloro-4-ethoxyphenyl)thiophen-2-yl]-2-(2,4-difluorobenzyl)-2H-isoquinolin-1-one]
Emax: > 90%
EC50: 10 to 150 nM

Cc1ccc(Cn2c(-c3ccc(Oc4ccccc4)cc3)cc3cccc(C)c3c2=O)cc1 [8-methyl-2-(4-methylbenzyl)-3-(4-phenoxyphenyl)-2H-isoquinolin-1-one]
Emax: 40 to 90%
EC50: 10 to 150 nM
